Series [1] relates to IL-17 production of mouse spleen cells stimulated by rm-IL-23. As to the kind of experiment: Production of IL-17 induced when mouse spleen cells were stimulated by recombinant mouse interleukin-23 (rm-IL-23). In kind it is cell-based. Conditions: Mus musculus, 72 h, inhibition of IL-17 production, DBA/1J mouse spleen cells, rm-IL-23 1 nmol/L, ELISA. The method in brief:
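Spleen cells from 6-7 week-old male DBA/1J mice, 2×10^5 cells/well in 10% FCS RPMI1640, cultured 72 h at 37° C with compound (1 to 1,000 nmol/L) plus 1 nmol/L rm-IL-23. IL-17 in supernatant by ELISA; viability by WST-8 absorbance at 450 nm; IC50 by linear regression of inhibition rate.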
In general terms: In an ELISA, binding on a coated surface is turned into a signal by an enzyme label.

For another series, the target named is hERG (Homo sapiens, UniProt Q12809). As to the kind of experiment: Effects on hERG current (whole-cell clamping). Conditions: human, HEK 293 cells that express hERG, pH 7.4, hERG inhibition rate (%) (1 μM), 1 μM; tail peak current; hERG-expressed HEK 293 cells. A general note: hERG is a cardiac potassium channel; its block is linked to QT prolongation.
hERG, sequence (Q12809 whole entry): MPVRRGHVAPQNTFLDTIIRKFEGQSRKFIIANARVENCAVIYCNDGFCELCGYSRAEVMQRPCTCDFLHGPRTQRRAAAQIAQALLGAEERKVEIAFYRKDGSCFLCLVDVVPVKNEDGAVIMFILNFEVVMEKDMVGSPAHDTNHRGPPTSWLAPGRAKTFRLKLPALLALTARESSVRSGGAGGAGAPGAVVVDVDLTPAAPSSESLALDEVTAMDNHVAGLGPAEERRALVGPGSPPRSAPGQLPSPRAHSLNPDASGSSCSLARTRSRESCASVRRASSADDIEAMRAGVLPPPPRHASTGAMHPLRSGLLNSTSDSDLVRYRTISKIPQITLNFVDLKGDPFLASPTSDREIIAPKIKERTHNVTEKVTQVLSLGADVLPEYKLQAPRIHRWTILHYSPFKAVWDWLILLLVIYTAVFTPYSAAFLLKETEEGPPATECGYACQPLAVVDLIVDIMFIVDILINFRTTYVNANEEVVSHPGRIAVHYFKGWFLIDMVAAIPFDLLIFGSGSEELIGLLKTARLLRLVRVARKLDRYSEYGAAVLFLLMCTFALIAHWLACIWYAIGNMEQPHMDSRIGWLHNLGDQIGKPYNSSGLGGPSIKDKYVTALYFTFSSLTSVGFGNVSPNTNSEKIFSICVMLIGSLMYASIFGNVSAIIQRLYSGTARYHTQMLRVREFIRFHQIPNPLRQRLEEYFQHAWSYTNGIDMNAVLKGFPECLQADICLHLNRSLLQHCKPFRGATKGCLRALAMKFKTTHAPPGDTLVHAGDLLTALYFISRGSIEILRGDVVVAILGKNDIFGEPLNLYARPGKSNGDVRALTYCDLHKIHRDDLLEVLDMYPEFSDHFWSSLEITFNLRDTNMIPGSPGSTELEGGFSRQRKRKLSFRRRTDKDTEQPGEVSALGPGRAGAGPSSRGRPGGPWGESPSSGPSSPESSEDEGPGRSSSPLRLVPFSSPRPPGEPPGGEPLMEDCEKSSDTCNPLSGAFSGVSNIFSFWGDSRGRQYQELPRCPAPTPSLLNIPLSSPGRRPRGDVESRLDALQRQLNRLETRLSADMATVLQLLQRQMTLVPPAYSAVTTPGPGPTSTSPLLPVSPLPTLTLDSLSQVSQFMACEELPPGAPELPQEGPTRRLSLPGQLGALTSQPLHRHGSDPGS

Counter-ions that a name gives are not always drawn.

Method for hERG: Dimethylsulfoxide was used as a vehicle and hERG-expressed HEK 293 cells (Cytomyx) were used as test cells. Test cells were once cultured and subdivided and were stored under frozen condition in liquid nitrogen. In the study, thawed and subcultured cells having less than 30 of the passage number were used. Test cells were cultured in a carbon dioxide incubator BNP-110M (Tabai Espec Corp.) at 37±1° C., and 5.0±0.5% of carbon dioxide concentration. The component of culture medium was MEM (Minimum Essential Medium) supplemented with 10 vol % fetal bovine serum (non-activated), 1 mmol/L sodium pyruvate, 0.1 mmol/L non-essential amino acid, 100 U/mL penicillin with 100 μg/mL streptomycin. To select gene-expressing cells, 400 μg/mL G418 Sulphate (Invitrogen) was added to the culture medium. In the dishes for the measurement, the medium which not contain G418 Sulphate (Invitrogen) was used.
As to seeding of cells for measurement, subcultured cells which became confluent were treated with 0.25% trypsin-solution containing 1 mmol/L EDTA (Invitrogen) to remove from the plate, and seeded on sterilized collagen-coated cover glass (Iwaki, AGC Techno Glass Co., LTD). The medium was exchanged appropriately, including the day of measurement.
A perfusion method was applied to the experiment. Test cells were perfused (perfusion speed: approximately 4 mL/min) with an external solution containing specified concentrations of test compounds (component of external solution: 137 mmol/L of sodium chloride, 4 mmol/L of potassium chloride, 10 mmol/L of HEPES, 1.8 mmol/L of calcium chloride, 1 mmol/L of magnesium chloride and 10 mmol/L of glucose; adjusted to pH 7.4±0.1 with sodium hydroxide aqueous solution). […] When effects were observed, the perfusion was continued until the maximum response was observed. […] The data were obtained from one experiment or more and the cells which were incubated in a carbon dioxide incubator after seeding and attached to cover slips were used for the measurement.
A whole-cell clamping method was applied to the measurement. Test cells were perfused (perfusion speed: approximately 4 mL/min) with an external solution (component of external solution: 137 mmol/L of sodium chloride, 4 mmol/L of potassium chloride, 10 mmol/L of HEPES, 1.8 mmol/L of calcium chloride, 1 mmol/L of magnesium chloride and 10 mmol/L of glucose; adjusted to pH 7.4±0.1 with sodium hydroxide aqueous solution). A glass electrode with a resistance of 2 to 6 MΩ, filled with an internal solution (component: 130 mmol/L of potassium chloride, 1 mmol/L of magnesium chloride, 5 mmol/L of EGTA, 10 mmol/L of HEPES and 5 mmol/L of ATP adjusted to pH 7.2±0.1 with sodium hydroxide aqueous solution) was used. After rupturing cell membrane with glass electrode, the cell membrane voltage was held at −80 mV via a patch clamp software (pCLAMP9 [Axon CNS], Molecular Devices) using patch clamp amplifier (EPC8, HEKA). […] Test cells and the cell-attached cover glass were changed every treatment. Temperature of the fluid in a perfusion fluid tank was 24±2° C.
The obtained current was recorded on a computer via a patch clamp amplifier using patch clamp software. An evaluation item was a tail peak current.
A tail peak current was analyzed using analyzing software (Clampfit 9 [Axon CNS], MolecularDevices). Each 2 pulses of before and after perfusion of test compound for each concentration was analyzed, and a peak values of the tail current on the pulses were determined. The inhibition ratio was determined according to the following equation:

For `Cc1cc(NC(=O)c2cnn(-c3ncc(C(F)(F)F)cc3Cl)c2C)cnc1[C@H]1CC[C@H](O)CC1` [Example G32, trans-1-[3-Chloro-5-(trifluoromethyl)pyridin-2-yl]-N-[6-(1-hydroxycyclohexan-4-yl)-5-methylpyridin-3-yl]-5-methyl-1H-pyrazole-4-carboxamide], in series [1], the IC50 (usually the point on the concentration scale where inhibition reaches its midpoint) came out at 0.105 µM. 1 µM produced 7.9% inhibition on hERG.
The corresponding values for `Cc1c(C(=O)Nc2ccc(C3CCC(=O)CC3)nc2)cnn1-c1ccc(F)cc1F` [Example E21] are 0.18 µM and 8.3%.
The like results for `Cc1c(C(=O)Nc2ccc([C@H]3CC[C@H](O)CC3)nc2)cnn1-c1ccc(OCCOC(C)(C)C)cc1` [Example J8] were, in that order, 0.053 µM and 11.3%.
Turning to `Cc1c(C(=O)Nc2cnc(C3=CCC(N4CCOCC4)CC3)c(C#N)c2)cnn1-c1ccc(C(F)(F)F)cn1` (stereo not drawn) [Example K38, N-{5-Cyano-6-[4-(morpholin-4-yl)cyclohex-1-en-1-yl]pyridin-3-yl}-5-methyl-1-[5-(trifluoromethyl)pyridin-2-yl]-1H-pyrazole-4-carboxamide], in series [1], the IC50 turned out to be 0.0581 µM. Further, testing at 1 µM against hERG gave an inhibition of 44.1%.
The corresponding values for `Cc1cc(NC(=O)c2cnn(-c3ccc(C(F)(F)F)cn3)c2C)cnc1C1=CCC(N(C)C(=O)OC(C)(C)C)CC1` (stereo not drawn) [Example D249, N-methyl-{4-[3-methyl-5-({5-methyl-1-[5-(trifluoromethyl)pyridin-2-yl]-1H-pyrazole-4-carbonyl}-amino)pyridin-2-yl]cyclohex-3-en-1-yl}carbamoic acid carbamic acid tert-butyl ester] are 0.131 µM and 36.9%.
The corresponding values for `Cc1c(C(=O)Nc2ccc(C3CCC4(CC3)OCCO4)nc2)cnn1-c1ccc(C(F)(F)F)cn1` [Example D237] are 0.0503 µM and 3.6%.
The like results for `Cc1c(C(=O)Nc2ccc([C@]3(C#N)CC[C@@H](O)CC3)nc2)cnn1-c1ccc(C2CC2)cc1` [Example J19] were, in that order, 0.132 µM and 18.5%.
On to `Cc1ccc(-n2ccc(C(=O)Nc3ccc(C4(C#N)CCC5(CC4)OCCO5)nc3)c2)cc1C` [Example D153], for which the IC50 in series [1] was 0.0551 µM. For the same compound, the inhibition (in general, the drop in the measured response relative to a control, in per cent) at 1 µM on hERG worked out at 47.6%.
Take `Cc1cc(NC(=O)c2cnn(-c3ccc(C4CC4)cn3)c2C)cnc1C1=CCN(C2CCOC2C)CC1` (stereo not drawn) [Example D191]: in series [1], the IC50 came to 0.0584 µM. Further, on hERG, testing at 1 µM gave an inhibition of 47.6%.
The like results for `Cc1ccc(-n2ncc(C(=O)Nc3ccc([C@]4(C#N)CC[C@@H](OCCO)CC4)nc3)c2C)cc1` [Example K19, N-{6-[r-1-cyano-c-4-(2-hydroxyethoxy)cyclohexyl]pyridin-3-yl}-5-methyl-1-(4-methylphenyl)-1H-pyrazole-4-carboxamide] were, in that order, 0.148 µM and 2.4%.
Take `Cc1cc(NC(=O)c2cnn(-c3ccc(F)cc3)c2C)cnc1C1=CCC(N(C)C(=O)C(C)(C)C)CC1` (stereo not drawn) [Example D260]: the IC50 in series [1] stood at 0.00402 µM. Further, testing at 1 µM at hERG gave an inhibition of 16.8%.
The corresponding values for `Cc1c(C(=O)Nc2ccc([C@]3(C#N)CC[C@@H](O)CC3)nc2)cnn1-c1ncc(C2CC2)cc1F` [Example J17] are 0.275 µM and 2.4%.
The corresponding values for `Cc1cc(NC(=O)c2cnn(-c3ccccc3)c2C)cnc1C1=CCC(N(C)C(=O)C(C)(C)C)CC1` (stereo not drawn) [Example D214] are 0.0187 µM and 10%.
Take `Cc1c(C(=O)Nc2ccc([C@]3(C#N)CC[C@@H](N4CCOCC4)CC3)nc2)cnn1-c1ccc(C(F)(F)F)cn1` [Example D1, N-{6-[r-1-Cyano-c-4-(morpholin-4-yl)cyclohexyl]pyridin-3-yl}-5-methyl-1-[5-(trifluoromethyl)pyridin-2-yl]-1H-pyrazole-4-carboxamide hydrochloride]: in series [1], the IC50 was 0.0789 µM. Further, on hERG, 1 µM produced 22.6% inhibition.
With `Cc1cc(NC(=O)c2cnn(-c3ncc(C(F)(F)F)cc3F)c2C)cnc1C1=CCC(O)CC1` (stereo not drawn) [Example D25, 1-[3-Fluoro-5-(trifluoromethyl)pyridin-2-yl]-5-methyl-N-[5-methyl-6-(4-hydroxycyclohex-1-en-1-yl)pyridin-3-yl]-1H-pyrazole-4-carboxamide], the IC50 in series [1] turned out to be 0.148 µM. This compound returned an inhibition at 1 µM against hERG of 4.2%.
As for `Cc1c(C(=O)Nc2ccc([C@]3(C#N)CC[C@@H](N(C)C(=O)C(C)(C)C)CC3)nc2)cnn1-c1ccc(C(F)(F)F)cn1` [Example D288, N-(6-{r-1-Cyano-c-4-[N-(2,2-dimethylpropanoyl)-N-methylamino]cyclohexan-1-yl}pyridin-3-yl)-5-methyl-1-[5-(trifluoromethyl)pyridin-2-yl]-1H-pyrazole-4-carboxamide], in series [1], the IC50 turned out to be 0.00538 µM. Further, the inhibition at 1 µM on hERG is 5.9%.
The corresponding values for `Cc1cc(NC(=O)c2cnn(-c3ncc(C(F)(F)F)cc3F)c2C)cnc1C1=CCC(N2CCOCC2)CC1` (stereo not drawn) [Example D24, 1-[3-Fluoro-5-(trifluoromethyl)pyridin-2-yl]-5-methyl-N-{5-methyl-6-[4-(morpholin-4-yl)cyclohex-1-en-1-yl]pyridin-3-yl}-1H-pyrazole-4-carboxamide mesylate] are 0.0403 µM and 20.9%.
The like results for `CC[C@]1(O)CC[C@](C#N)(c2ccc(NC(=O)c3cnn(-c4ccc(Cl)cc4)c3C)cn2)CC1` [Example D275] were, in that order, 0.0553 µM and 14.4%.
The corresponding values for `N#CC1(c2ccc(NC(=O)c3ccc(-c4ccc(Cl)cc4)o3)cn2)CCC2(CC1)OCCO2` [Example E18] are 0.0504 µM and 8.8%.
On to `Cc1c(C(=O)Nc2ccc(C3CCC(O)CC3)nc2)cnn1-c1ccc(Cl)cc1` (stereo not drawn) [Example G9], for which the IC50 in series [1] stood at 0.145 µM. Besides, testing at 1 µM against hERG gave an inhibition of 0.8%.
The corresponding values for `Cc1c(C(=O)Nc2ccc([C@H]3CC[C@H](N4CCOCC4)CC3)nc2)cnn1-c1ccc(C(F)(F)F)cn1` [Example D6, trans-5-Methyl-N-{6-[4-(morpholin-4-yl)cyclohexyl]pyridin-3-yl}-1-[5-(trifluoromethyl)-pyridin-2-yl]-1H-pyrazole-4-carboxamide mesylate] are 0.0633 µM and 24.5%.
The like results for `Cc1cc(NC(=O)c2cnn(-c3ccc(C(F)(F)F)cn3)c2C)cnc1C1CCC2(CC1)OCCO2` [Example D238] were, in that order, 0.0491 µM and 5%.
Regarding `Cc1cc(NC(=O)c2cnn(-c3ccc(C(F)(F)F)cn3)c2C)cnc1C1=CCC(N(C)C(=O)C(C)(C)C)CC1` (stereo not drawn) [Example K28, N-(6-{4-[N-(2,2-Dimethylpropion-1-yl)-N-methylamino]cyclohex-1-en-1-yl}-5-methylpyridin-3-yl)-5-methyl-1-[5-(trifluoromethyl)pyridin-2-yl]-1H-pyrazole-4-carboxamide], the IC50 in series [1] came out at 0.00811 µM. This compound also gave an inhibition at 1 µM on hERG of 5.1%.
The like results for `CO[C@H]1CC[C@](C#N)(c2ccc(NC(=O)c3cnn(-c4ccc(C)cc4)c3C)cn2)CC1` [Example D18, N-{6-[r-1-Cyano-c-4-methoxycyclohexyl]pyridin-3-yl}-5-methyl-1-(4-methylphenyl)-1H-pyrazole-4-carboxamide] were, in that order, 0.251 µM and 7.2%.
Regarding `Cc1cc(NC(=O)c2cnn(-c3ncc(C4CC4)cc3F)c2C)cnc1C1=CCC(N2CCOCC2)CC1` (stereo not drawn) [Example D177], the IC50 in series [1] came to 0.066 µM. Besides, on hERG, the inhibition at 1 µM amounted to 13%.
Consider `Cc1c(C(=O)Nc2ccc([C@]3(C#N)CC[C@@H](O)CC3)nc2)cnn1-c1ccc(C(C)C)cc1` [Example J18], for which the IC50 in series [1] was 0.137 µM. Besides, testing at 1 µM on hERG gave an inhibition of 17.8%.
The corresponding values for `Cc1c(C(=O)Nc2ccc([C@]3(C#N)CC[C@@H](O)CC3)nc2)cnn1-c1ccc(C2CC2)cn1` [Example J13] are 0.242 µM and 10.7%.
As to `Cc1cc(NC(=O)c2cnn(-c3ccc(C(F)(F)F)cn3)c2C)cnc1C1=CCC(NC(=O)C(C)(C)C)CC1` (stereo not drawn) [Example D224], the IC50 in series [1] came out at 0.141 µM. Moreover, at hERG, the inhibition at 1 µM came out at 19.5%.
The corresponding values for `Cc1cc(NC(=O)c2cnn(-c3ccc(C(F)(F)F)cn3)c2C)cnc1C1=CCN(C(=O)C(C)(C)C)CC1` [Example K41, N-{6-[1-(2,2-Dimethylpropanoyl)-1,2,3,6-tetrahydropyridin-4-yl]-5-methylpyridin-3-yl}-5-methyl-1-[5-(trifluoromethyl)pyridin-2-yl]-1H-pyrazole-4-carboxamide] are 0.161 µM and 25.6%.
As to `Cc1c(C(=O)Nc2ccc([C@]3(C#N)CC[C@@H](N4CCC(O)C4)CC3)nc2)cnn1-c1ccc(C(F)(F)F)cn1` (stereo partly drawn) [Example D13, N-{6-[r-1-Cyano-c-4-(3-hydroxypyrrolidin-1-yl)cyclohexyl]pyridin-3-yl}-5-methyl-1-[5-(trifluoromethyl)pyridin-2-yl]-1H-pyrazole-4-carboxamide], in series [1], the IC50 amounted to 0.154 µM. At hERG, this compound returned an inhibition at 1 µM of 22%.

For the origin of these results see patent publication US9150555B2, “Amide derivative and use thereof” (Mitsubishi Tanabe Pharma Corporation, priority 2010, dated 2015).
